Test results: PMC9251361, “Effects of LPS Composition in Escherichia coli on Antibacterial Activity and Bacterial Uptake of Antisense Peptide-PNA Conjugates” (Frontiers in Microbiology, 2022)
≈ marks a conversion by molar mass, not a printed value. Read-outs that look alike come from different tables or passages of the source. Positions of bridges follow the written chain, without caps; N, C: chain ends. Non-standard residues stand in square brackets, D forms with d. Residues, ends and D or L forms follow the SMILES beside them. *: point of attachment. X1 = CC[C@H](C)CCCCC(=O)*; Dab = NCC[C@H](N)C(=O)O

How the values were obtained:
[1] = test system: E. coli R1 core type (F470); assay type: cell-based, Escherichia coli; settings: Table 2, strain R1* (48 h), MHB, 37°C
Description: (§1) All strains used in this study are listed in Supplementary Table S1. E. coli strains WD101 and WD101ΔeptAΔarnD (WD101ΔΔ) were kindly provided by Professor M. Stephen Trent (University of Georgia, USA). E. coli strains DB wild type, DB L5, and DB L9 were kindly provided by Dr. Douglas Browning (University of Birmingham, UK). Single deletion strains for envelope mutants were obtained from the Keio-collection (Baba et al., [2006]). All strains were grown in non-cation adjusted Muller Hinton broth (MHB) (Sigma, Cat. No. 70192). BPP-PNA conjugates (Table 1) were obtained as described previously (Good et al., [2001]; Ghosal et al., [2013]; Hansen et al., [2016]).
Minimum inhibitory concentration (MIC) values were determined by broth microdilution according to standard protocols adapted to peptide-based antimicrobial compounds (Goltermann and Nielsen, [2020]). Briefly, 190 μl bacterial cell culture containing ≈10^5 cfu/ml was dispensed into a 96-well plate (Thermo Scientific, Nunc Cat. No. 260896, 96F straight w/lid) along with 10 μl PNA stock solution or antibiotic. […] The MIC was determined as the lowest concentration, which inhibited visible growth (OD < 0.1) in the wells. […] Experiments were performed in triplicates as a minimum.

[2] = test system: E. coli R3 core type (F653); assay type: cell-based, Escherichia coli; settings: Table 2; strain R3; MHB, 37°C, 18 h
Description: as §1
(§2) Minimum inhibitory concentration (MIC) values were determined by broth microdilution according to standard protocols adapted to peptide-based antimicrobial compounds (Goltermann and Nielsen, [2020]). Briefly, 190 μl bacterial cell culture containing ≈10^5 cfu/ml was dispensed into a 96-well plate (Thermo Scientific, Nunc Cat. No. 260896, 96F straight w/lid) along with 10 μl PNA stock solution or antibiotic. The plate was incubated in a Tecan Genios plate reader at 37°C for 18 h, and OD was measured every 20 min at 595 nm. The MIC was determined as the lowest concentration, which inhibited visible growth (OD < 0.1) in the wells. […] Experiments were performed in triplicates as a minimum.

[3] = test system: E. coli R4 core type (F2513); assay type: cell-based, Escherichia coli; settings: Table 2; strain R4; MHB, 37°C, 18 h
Description: as §1, §2

[4] = test system: E. coli 122 ΔrfaF (ATCC25922 ΔrfaF); assay type: cell-based, Escherichia coli; settings: Table 2; strain 122 ΔrfaF; MHB, 37°C, 18 h
Description: as §1, §2

[5] = test system: E. coli 123 ΔrfaG (ATCC25922 ΔrfaG); assay type: cell-based, Escherichia coli; settings: Table 2; strain 123 ΔrfaG; MHB, 37°C, 18 h
Description: as §1, §2

E. coli WD101ΔΔ = assay type: cell-based, Escherichia coli; settings: Table 2; strain WD101ΔΔ; MHB, 37°C, 18 h
Description: as §1, §2

[6] = test system: E. coli R2 core type (F632); assay type: cell-based, Escherichia coli; settings: Table 2; strain R2; MHB, 37°C, 18 h
Description: as §1, §2

E. coli ATCC25922 = assay type: cell-based, Escherichia coli; settings: strain ATCC25922, MHB, 37°C, 18 h; for MIC values: Table 3
Description: as §1, §2

[7] = test system: E. coli WD101 (polymyxin-resistant pmrA^C); assay type: cell-based, Escherichia coli; settings: Table 2; strain WD101; MHB, 37°C, 18 h
Description: as §1, §2

E. coli K12 MG1655 = assay: microbe, parasite or virus in culture; assay type: cell-based, Escherichia coli; settings: 37°C, 18 h; for MIC values: Table 3, strain MG1655
Description: as §1, §2

[8] = test system: E. coli ATCC25922 ΔrfaC (120 ΔrfaC); assay: MIC broth microdilution; assay type: cell-based, Escherichia coli; settings: for MIC values: Table 3, strain ATCC25922 ΔrfaC
Description: as §1, §2

E. coli AS19 = assay: MIC broth microdilution; assay type: cell-based, Escherichia coli; settings: Table 2; strain AS19; MHB, 37°C, 18 h
Description: as §1, §2

[9] = test system: E. coli 121 ΔrfaE (ATCC25922 ΔrfaE); assay: MIC broth microdilution; assay type: cell-based, Escherichia coli; settings: Table 2; strain 121 ΔrfaE; MHB, 37°C, 18 h
Description: as §1, §2

[10] = test system: E. coli inner core mutants (ΔrfaC, ΔrfaE, ΔrfaF, and ΔrfaG); assay: MIC broth microdilution, inner core mutants as a group; assay type: cell-based, Escherichia coli; settings: all the inner core mutants as well as AS19
Description: as §2
Four inner core mutants (ΔrfaC, ΔrfaE, ΔrfaF, and ΔrfaG) with increasingly shortened LPS core (Figure 2A) were investigated. The deletions span the three heptosyl and glycosyltransferases rfaC, rfaF, and rfaG responsible for attaching heptose and glucose, respectively, to the growing LPS core, and rfaE required for the synthesis of the heptose precursor needed for LPS synthesis (Figure 2A). […] Furthermore, all strains were characterized with respect to hydrophobicity and accessible cell surface charge (Figure 2B, vide infra). […] It is known that the peptide portion of the conjugates can have a membrane disruptive effect at high concentrations (Eriksson et al., [2002]). […]

E. coli MG1655 ΔsbmA = assay: MIC broth microdilution; assay type: cell-based, Escherichia coli; settings: Table 3; strain MG1655 ΔsbmA; MHB, 37°C, 18 h
Description: as §1, §2

[11] = HPLC analysis of BPP-PNA relative hydrophobicity; assay type: physicochemical; settings: chromatographic measure of hydrophobicity; RP18 column (150 ×3.9 mm DeltaPak, 5 μm); 0 to 40% buffer B (95% acetonitrile, 0.1% TFA) in 30 min; conjugates dissolved in water and mixed; recorded at 260 nm
Description: Hydrophobicity of the BPP-PNA conjugates was measured using reversed phase high-performance liquid chromatography (HPLC) on an RP18 column (150 ×3.9 mm DeltaPak, 5 μm; Waters Corporation, Milford, MA, USA). Briefly, all the BPP-PNA conjugates were dissolved in water and mixed. The mixture of BPP-PNA conjugates has been run on HPLC and recorded at 260 nm. The HPLC buffers used in this study are buffer A composed of 5% acetonitrile, 0.1% trifluoroacetic acid (TFA), and 95% H2O, and buffer B composed of 95% acetonitrile, 0.1% TFA, and 5% H2O; the gradient starts from 100% of buffer A, 0% of buffer B, and ends with 60% of buffer A, 40% of buffer B in 30 min. Hydrophobicity of the compound was directly correlated to the HPLC retention time of each conjugate.

[12] = Table 2, strain K12 MG1655, MHB

In the case of CC[C@H](C)CCCCC(=O)N[C@@H](CCN)C(=O)N[C@H](C(=O)N[C@@H](CCN)C(=O)N[C@H]1CCNC(=O)[C@H]([C@@H](C)O)NC(=O)[C@H](CCN)NC(=O)[C@H](CCN)NC(=O)[C@H](CC(C)C)NC(=O)[C@@H](CC(C)C)NC(=O)[C@H](CCN)NC1=O)[C@@H](C)O [Colistin] (X1-[Dab]T[Dab][Dab][Dab][dL]L[Dab][Dab]T; lactam 4-C (inferred); N-terminus assumed), the “Minimum inhibitory concentration, Colistin” value [1] is reported as 0.016 µg/mL (≈ 0.0137 µM), the “Minimum inhibitory concentration, Colistin” value [2] is reported as 0.06 µg/mL (≈ 0.0513 µM) and the “Minimum inhibitory concentration, Colistin” value [3] is reported as 0.03 µg/mL (≈ 0.0257 µM). The “Minimum inhibitory concentration, Colistin” value [4] was 0.016 µg/mL (≈ 0.0137 µM), the “Minimum inhibitory concentration, Colistin” value [5] was no more than 0.016 µg/mL and the “Minimum inhibitory concentration, Colistin” value (E. coli WD101ΔΔ) was no more than 0.016 µg/mL. The “Minimum inhibitory concentration, Colistin” value [6] was 0.03 µg/mL (≈ 0.0257 µM), the “Minimum inhibitory concentration, Colistin” value (E. coli ATCC25922; Table 2) was 0.06 µg/mL (≈ 0.0513 µM) and the “Minimum inhibitory concentration, Colistin” value [7] was 4 µg/mL (≈ 3.42 µM). For the same compound, the “Minimum inhibitory concentration, Colistin” value (E. coli K12 MG1655; [12]) was 0.03 µg/mL (≈ 0.0257 µM).

For CCCCCCCCCCCCOS(=O)(=O)[O-].[Na+] [SDS, sodium dodecyl sulfate], the “Minimum inhibitory concentration, SDS” value ([8]; Table 2, strain 120 ΔrfaC, MHB, 37°C, 18 h) was no more than 0.03%, the “Minimum inhibitory concentration, SDS” value (E. coli AS19) was no more than 0.03% and the “Minimum inhibitory concentration, SDS” value [9] was no more than 0.03%. For the same compound, the “MIC, SDS” value [10] was less than 0.03%, the “Minimum inhibitory concentration, SDS” value [2] was greater than 0.5% and the “Minimum inhibitory concentration, SDS” value [3] was no more than 0.06%. For the same compound, the “Minimum inhibitory concentration, SDS” value [4] was no more than 0.03%, the “Minimum inhibitory concentration, SDS” value [5] was no more than 0.03% and the “Minimum inhibitory concentration, SDS” value (E. coli WD101ΔΔ) was 0.12%. The “Minimum inhibitory concentration, SDS” value [6] was greater than 0.5%, the “Minimum inhibitory concentration, SDS” value (E. coli ATCC25922; Table 2) was 0.12% and the “Minimum inhibitory concentration, SDS” value [7] was 0.12%. The “Minimum inhibitory concentration, SDS” value (E. coli K12 MG1655; [12]) was 0.12%.

Compound “-Cys- RAGLQFPVGRVHRLLRK-NH2 (BF2A) [PNA4030, anti acpP PNA conjugated to buforin 2a (BF2A) via Cys]” has an MIC values ([8]; MHB, 37°C, 18 h) of less than 0.25 µM, an MIC values (E. coli MG1655 ΔsbmA) of 8 to 16 µM and an MIC values (E. coli ATCC25922) of 0.5 µM. It also gave an MIC values (E. coli K12 MG1655; MHB) of 1 µM.

With “-Cys-GKPRPYSPRPTSHPRPIRV-NH2 (Drosocin) [PNA4128, anti acpP PNA conjugated to drosocin via Cys]” the MIC values ([8]; MHB, 37°C, 18 h, listed as 4128) was less than 0.06 µM, the “fold lower MIC in the ΔrfaC-mutant than the ATCC25922 control” value ([8]; ΔrfaC-mutant vs ATCC25922) was “more than 16 fold” and the MIC values (E. coli MG1655 ΔsbmA) was 4 to 8 µM. It also gave an MIC values (E. coli ATCC25922; listed as 4128) of 1 µM and an MIC values (E. coli K12 MG1655; MHB) of 0.5 to 1 µM.

Compound “-Cys-GKPRPYSPRPTSHPRPIRV-NH2 (Drosocin) [PNA4242, mm for PNA4128]” has an MIC values ([8]; MHB, 37°C, 18 h, listed as 4242) of less than 1 µM and an MIC values (E. coli ATCC25922; listed as 4242) greater than 8 µM.

In the case of “-Cys-GKPRPYSPRPTSHPRPIRV-R-X-R-NH2 [PNA4448, anti acpP PNA conjugated to drosocin extended by R-X-R]”, the MIC values ([8]; MHB, 37°C, 18 h) is reported as less than 0.12 µM, the MIC values (E. coli MG1655 ΔsbmA) is reported as 2 µM and the MIC values (E. coli ATCC25922) is reported as 2 µM. For the same compound, the MIC values (E. coli K12 MG1655; MHB) was 1 to 2 µM.

Compound “-Cys-RAGLQFPVGRVHRLLRK-NH2 (BF2A) [PNA4243, mm for PNA4030]” has an MIC values ([8]; MHB, 37°C, 18 h) of less than 2 µM and an MIC values (E. coli ATCC25922) greater than 8 µM.

“-Cys-RAGLQFPVGRVHRLLRK-R-X-R-NH2 (BF2A) [PNA4449, anti acpP PNA conjugated to BF2A extended by R-X-R]” showed an MIC values ([8]; MHB, 37°C, 18 h) of less than 0.25 µM, an MIC values (E. coli MG1655 ΔsbmA) greater than 4 µM and an MIC values (E. coli ATCC25922) of 1 µM. For the same compound, the MIC values (E. coli K12 MG1655; MHB) was less than 0.5 µM.

“-Cys-VDKPPYLPRPRPPRRIYNR-NH2 (oncocin) [PNA4124, anti acpP PNA conjugated to oncocin via Cys]” showed an MIC values ([8]; MHB, 37°C, 18 h, listed as 4124) of 0.25 µM, an MIC values (E. coli MG1655 ΔsbmA) greater than 8 µM and an MIC values (E. coli ATCC25922; listed as 4124) greater than 2 µM. The MIC values (E. coli K12 MG1655; MHB) was 8 µM.

Compound “-Cys-VDKPPYLPRPRPPRRIYNR-NH2 (oncocin) [PNA4700, mm for PNA4124]” has an MIC values ([8]; MHB, 37°C, 18 h, listed as 4700) of 4 µM and an MIC values (E. coli ATCC25922; listed as 4700) greater than 8 µM.

With “H-CTCATACTCT-NH2 [PNA2301, unconjugated anti acpP PNA, H-…-NH2]” the Minimum inhibitory concentration (E. coli AS19) was 2 µM, the “HPLC retention time (RT)” value [11] was 14 min and the Minimum inhibitory concentration [2] was greater than 16 µM. For the same compound, the Minimum inhibitory concentration [3] was greater than 16 µM, the Minimum inhibitory concentration [4] was greater than 4 µM and the Minimum inhibitory concentration [5] was greater than 16 µM. It also gave a Minimum inhibitory concentration (E. coli ATCC25922; Table 2) greater than 16 µM and a Minimum inhibitory concentration (E. coli K12 MG1655; Table 2, strain K12 MG1655, non-cation adjusted MHB, ≈10^5 cfu/ml, triplicates minimum) greater than 32 µM.
